A short description of data set [1]: In vitro metabolism in rat brain homogenate. It is filed as in vitro ADME. On the procedure:
Rat brains were homogenized in chilled saline (1:3, w/v) on ice to obtain the brain homogenate. The incubation mixtures composed of the brain homogenate (2 mg protein/mL), alamethicin (50 μg/mg protein), IMM-H004 (10 μmol/L), and UDPGA (5 mmol/L) in a final volume of 0.2 mL of Tris-HCl buffer (50 mmol/L, pH 7.4) containing 5 mmol/L of MgCl2. Before initiating the reaction, the brain homogenate was preincubated with alamethicin on ice for 15 min. Subsequently, IMM-H004 and UDPGA were added to initiate the reaction. After incubating at 37 °C for 60 min, the reaction was quenched by adding two volumes of acetonitrile containing IS (0.1 μg/mL). On the other hand, IMM-H004G (1 μmol/L) was incubated with the brain homogenate (2 mg protein/mL) for up to 4 h. The concentrations of IMM-H004 and IMM-H004G were determined by LC-MS/MS.

In data set [2] the test system is pyrilamine-sensitive H^+/OC antiporter. Kind of data set: Identification of transporters using inhibitors in hCMEC/D3 cells: H+/OC antiporter. The conditions noted are these: substrate 10 μmol/L; for reduction of uptake by quinidine: quinidine 100 μmol/L; for reduction of uptake by verapamil: verapamil 100 μmol/L. The format is cell-based, human. As to the method:
The toxicity of all compounds, including inhibitors and substrates, toward hCMEC/D3 cells, was assessed using the 3-(4,5-Dimethylthiazol-2-yl)-2,5-diphenyltetrazolium bromide (MTT) reduction assay as described previously. To assess the effects of pyrilamine-sensitive proton-coupled organic cation (H^+/OC) antiporter, organic anion transporter (OAT), organic anion-transporting polypeptides (OATPs), organic cation transporter (OCT), and novel organic cation–carnitine transporter (OCTN) inhibitors on the uptake process, IMM-H004 or IMM-H004G (10 µmol/L) combined with the inhibitors were added to the medium after preincubating the cells with the inhibitors for 30 min. For evaluating the impact of the multidrug and toxin extrusion transporter (MATE), P-glycoprotein (P-gp), multidrug resistance protein (MRP), and breast cancer resistance protein (BCRP) on the uptake, IMM-H004 or IMM-H004G (10 µmol/L) was preincubated with the cells for 2 h before the addition of the inhibitors. After removing the supernatant, the cells were washed twice with prewarmed HBSS and incubated with fresh HBSS for 20 min. At the end of incubation, the supernatants were collected. The cells were washed with cold HBSS and lysed using RIPA buffer. The protein content of the lysed cells was determined using a bicinchoninic acid (BCA) assay kit (Beyotime Inc., Shanghai, China). The results were expressed as a percentage of the vehicle control.

The next data set is described as follows: In situ brain perfusion. The format is in vivo, rat. Conditions: 10 μmol/L. As to the method:
The rat brain was perfused following a previously described method. Briefly, the common carotid arteries on both sides were cannulated and connected to the perfusion system, while the external carotid artery was ligated. At the beginning of perfusion, the jugular veins on both sides were quickly incised. The perfusion procedure consisted of a preperfusion wash with saline for 1 min, followed by drug infusion (2 µmol/L IMM-H004 or IMM-H004G) for 2, 5, and 10 min, and concluded with a postperfusion wash (saline for 5 min) at a rate of 4.0 mL/min. To examine the impact of P-gp (PSC833, 5 µmol/L) and OATP (rifamycin SV, 100 µmol/L) on BBB transport, the perfusate containing the inhibitor was perfused for 1 min, and then the mixture of IMM-H004 or IMM-H004G (10 µmol/L) and the inhibitor was perfused for 10 min. Following the perfusion, the rats were decapitated, and their brains were homogenized (1:3, w/v) in chilled saline. The concentrations of IMM-H004 and IMM-H004G were then determined by LC-MS/MS.
The unidirectional transfer constant Kin (mL/min/g) was calculated using the following equation:(4) Kin=Qbr/Cpf[…] where Qbr/Cpf is the apparent brain distribution volume, Qbr is the measured amount of compound in brain tissue, Cpf is the concentration of compound in the perfusate, and T is the perfusion time.

The conditions of data set [3]: cited from earlier work.
Data set [4] in a line: Pharmacokinetics in rats with cerebral microdialysis. It is filed as in vivo. The conditions noted are these: rat; for Kp: brain (cerebral cortex microdialysate) and plasma, read-out: Kp (AUCbrain/AUCplasma); for peak brain concentration: free concentration (microdialysis); for AUCbrain / concentration at 2 min / AUC: free concentration; for concentration at 2 min / AUC: plasma (free concentration); for AUC: read-out: AUCplasma. On the procedure: Rats were anesthetized with isoflurane. Microdialysis intracerebral guide cannulas and CMA 12 Elite Probe (PAES membrane with a MWCO of 20 kDa, 2 mm membrane length (CMA/Microdialysis AB, Stockholm, Sweden)) were implanted into the cerebral cortex at the coordinates relative to bregma: medial/lateral = 3.0 mm; anterior/posterior = 0.5 mm; dorsal/ventral = −3.0 mm. After a 24 h recovery period, the intracerebral probe was connected to the microdialysis cannula, and Ringer’s solution was perfused at a flow rate of 2.0 μL/min. Then, IMM-H004 citrate or IMM-H004G (10 mg/kg) was injected intravenously (iv). Dialysate samples were collected every 5 to 60 min for a duration of 7 h. The probe recovery in vitro was determined by dialyzing a standard mixture of IMM-H004 (50 ng/mL) and IMM-H004G (300 ng/mL) infused with Ringer’s solution.
Blood samples were collected from the orbital plexus into heparinized tubes and subsequently centrifuged to separate the plasma. The concentrations of IMM-H004 and IMM-H004G in both the dialysate and plasma samples were determined using LC-MS/MS analysis. Subsequently, the free concentrations in the brain and plasma were corrected with probe recovery and fu for further analysis, respectively. The pharmacokinetic parameters were calculated via noncompartmental analysis (NCA) using Phoenix WinNonlin 6.3 (Pharsight Corporation, Sunnyvale, CA, USA). The brain–plasma partition coefficient (Kp) was determined as the ratio of the area under the concentration–time curve for the brain (AUCbrain) to that of the plasma (AUCplasma).

Data set [5] can be described thus: In vivo metabolism of IMM-H004 in rat brain after intracerebroventricular injection. Conditions: for detection in brain regions: 6–60 min after icv injection of IMM-H004 3.8 μg/kg. On the procedure:
The metabolism of IMM-H004 in the brain was investigated through the intracerebroventricular (icv) injection of IMM-H004 in rats, and the drug concentration in each brain region was analyzed. The rats were fixed on a benchmark stereotactic instrument (Leica Biosystems, Deer Park, IL, USA) under isoflurane anesthesia. Using a microinjector connected to a syringe pump, a 5 μL solution of IMM-H004 was dissolved in artificial cerebrospinal fluid (ACSF) and injected (3.8 μg/kg) into the lateral ventricle. The injection coordinates were as follows: medial/lateral = 1.5 mm; anterior/posterior = −0.8 mm; dorsal/ventral = −4 mm. Animals were sacrificed at 6, 15, 30, 45, and 60 min after drug administration. The brains were collected and dissected on ice into the following regions: the cerebellum, brainstem, hypothalamus, hippocampus, midbrain, striatum, and cortex. The subsequent procedure for processing tissue samples was the same as the procedure described in Section 2.3.1.

The mark [6] stands for this setting: after iv IMM-H004 citrate 10 mg/kg.

`COc1cc(OC2OC(C(=O)O)C(O)C(O)C2O)cc2oc(=O)c(N3CCN(C)CC3)c(C)c12` (stereo not shown) [IMM-H004G]: the “stability of IMM-H004G (change in concentration)” value in data set [1] (1 μmol/L, rat brain homogenate 2 mg/mL protein, 4 h) is recorded as “did not result in a reduction in its concentration”. Further, in data set [2], the “reduction of uptake by quinidine” value is reported as “not affected” and the “reduction of uptake by verapamil” value is reported as “not affected”. In addition, the “change in Kin value with OATP inhibitor” value in the data set “In situ brain perfusion” (rifamycin SV 100 μmol/L, 10 min perfusion, rat) was “no significant change”. The “brain exposure relative to the parent drug” value in data set [3] (rats) is “six times higher”. Also, in data set [4] (setting [6]), the “AUCbrain relative to that of IMM-H004” value stood at 5.4 times, the “AUCplasma relative to that of IMM-H004” value turned out to be 116 times, the Kp came to 0.06 and the AUCbrain amounted to 1.053 µM·h. In addition, the AUC in data set [4] (setting [6]) is 16.4 µM·h. In data set [4] (after iv IMM-H004G 10 mg/kg), the peak brain concentration is 1712 nmol/L, the AUCbrain turned out to be 1.923 µM·h and the concentration at 2 min amounted to 40.2 µM. Further, the “detection in brain regions” value in data set [5] is recorded as “only detected at lower concentrations in the hypothalamus”. In data set [5] (hypothalamus and plasma, icv or intrathecal, 3.8 ug/kg, after icv injection of IMM-H004 3.8 μg/kg, read-out: hypothalamus-to-plasma AUC ratio), the Kp stood at 3.13.
With `COc1cc(O)cc2oc(=O)c(N3CCN(C)CC3)c(C)c12` [IMM-H004], the “formation of IMM-H004G” value in data set [1] (IMM-H004 10 μmol/L, rat brain homogenate, 1 h) was “time-dependent”. In data set [2], the “reduction of uptake by quinidine” value is listed as 57.7% and the “reduction of uptake by verapamil” value is recorded as 61.5%. Further, the “increase in Kin value with P-gp inhibitor PSC833 compared to control” value in “In situ brain perfusion” (PSC833 5 μmol/L, 10 min perfusion, rat) is 4.3 times. Further, in the data set “In situ brain perfusion” (in situ rat brain perfusion), the “Kin value relative to that of IMM-H004G” value stood at 18 times higher. Moreover, the elimination half-life in data set [3] (rat plasma and brain tissues, intravenous dosing) is less than 1 h. Besides, in data set [4] (setting [6]), the Kp was 1.39, the AUCbrain came out at 0.196 µM·h and the AUC worked out at 0.141 µM·h. For the same compound, in data set [4] (after iv IMM-H004G 10 mg/kg), the peak brain concentration stood at 35.1 nmol/L, the AUCbrain amounted to 0.0938 µM·h and the concentration at 2 min was determined as 0.0398 µM. Besides, the “detection in brain regions” value in data set [5] is given as “detected in all brain regions”.

The record behind these values is paper PMC10975012, “The Active Glucuronide Metabolite of the Brain Protectant IMM-H004 with Poor Blood–Brain Barrier Permeability Demonstrates a High Partition in the Rat Brain via Multiple Mechanisms” (Pharmaceutics, 2024).
